Patent US4954510A, “Antiviral agent containing lactam compound” (Meiji Seika Kaisha, Ltd., priority 1987, dated 1990)
In brackets after ≈: the same amount, converted by molar mass. Where a name gives a salt, the structure may show the parent alone. Read-outs that look alike come from different tables or passages of the source.

What was measured:
[1] = tested on: HIV; experiment: in vitro anti-HIV activity: decrease in the cytocidal effect of HIV on MT-2 cells; type: cell-based; conditions: for EC50: Human immunodeficiency virus 1, MT2, 168 h, read-out: EC50 (concentration giving a 50% decrease in the cytocidal effect of HIV); for TI50 (IC50/EC50): ratio IC50/EC50, 10080 min
Procedure: (§1) Namely, the host human T-lymphotropic MT-2 cell line is transplanted on a microtiter plate and a series of dilutions of the test compounds shown in the table below are added with or without addition of HIV, followed by incubation for 7 days. For evaluation, the residual viable cell count is then determined by colorimetry.
(§2) In the above table, EC50 means the concentration of the test compound giving a 50% decrease in the cytocidal effect of HIV and IC50 means the concentration of the test compound giving a 50% inhibition of growth of normal non-infected cells.

[2] = acute toxicity (LD50) in mice; conditions: mouse, in vivo
Procedure: The LD50 value of D-glucaro-δ-lactam sodium salt in mice is not less than 3 g/kg by the intraveous injection and not less than 5 g/kg by the oral administration. The LD50 value of D-glucaro-δ-lactam methyl ester in mice is not less than 5 g/kg by the intraveous injection and not less than 10 g/kg by the oral administration. With respect to 6-O-triphenylmethyl-D-gluco-δ-lactam, the LD50 value is not less than 300 mg/kg in case of the subcutaneous administration in mice.

[3] = inhibition of growth of normal non-infected cells (MT-2); type: cell-based, human; conditions: human; MT-2 cells without HIV, 7 days, viable cell count by colorimetry; read-out: IC50 (concentration giving a 50% inhibition of growth of normal non-infected cells)
Procedure: as §1, §2

[4] = tested on: human T-lymphotropic MT-2 cell line; experiment: as above; type: cell-based; conditions: Homo sapiens, MT2, 168 h; MT-2 cells without HIV, 7 days, viable cell count by colorimetry; read-out: IC50 (concentration giving a 50% inhibition of growth of normal non-infected cells)
Procedure: as §1, §2

[5] = tested on: AIDS patients; conditions: in words, cited from earlier work

## O=C1N[C@H](COC(c2ccccc2)(c2ccccc2)c2ccccc2)[C@@H](O)[C@H](O)[C@H]1O [6-O-triphenylmethyl-D-gluco-δ-lactam]
[1]
  EC50: 0.0386 ng/mL (≈ 9.2e-05 µM)
  TI50 (IC50/EC50): 8.19 × 10^5
[2]; sc, subcutaneous administration
  LD50: ≥ 300 mg/kg
[3]
  CC50 at 168 h: 31.7 µg/mL (≈ 75.6 µM)

## O=C(O)[C@H]1NC(=O)[C@H](O)[C@@H](O)[C@@H]1O [D-glucaro-δ-lactam calcium salt]
[1]; MT-2 cells, with HIV, 7 days, viable cell count by colorimetry
  EC50: < 0.25 ng/mL
[1]
  TI50 (IC50/EC50): > 1.00 × 10^6
[4]
  IC50: > 250 µg/mL

## COC(=O)[C@H]1NC(=O)[C@H](O)[C@@H](O)[C@@H]1O [D-glucaro-δ-lactam methyl ester]
[2]; intravenous injection
  LD50: ≥ 5000 mg/kg
[2]; oral administration
  LD50: ≥ 10000 mg/kg

## O=C(O)[C@H]1NC(=O)[C@H](O)[C@@H](O)[C@@H]1O [D-glucaro-δ-lactam sodium salt]
[2]; intravenous injection
  LD50: ≥ 3000 mg/kg
[2]; oral administration
  LD50: ≥ 5000 mg/kg

## Cc1cn([C@H]2C[C@H](N=[N+]=[N-])[C@@H](CO)O2)c(=O)[nH]c1=O [azidothymidine (AZT), azidothymidine]
[5]; listed as AZT
  side effects in clinical application: side effects of AZT on bone marrow
[5]
  side effects in clinical application: serious side effects such as bone marrow depression, anemia and neurologic disorders such as headache and convulsion
